Test system: mouse liver microsomes, metabolic half-life
Assay: qHTS Assay for Inhibitors of Bacillus subtilis Sfp phosphopantetheinyl transferase (PPTase): Mouse Liver Microsome Stability (Half Time)
Text: PPTases are responsible for the activation of a variety of pathogen-associated virulence factors. Among these compounds are toxins such as mycolactone from Mycobacterium ulcerans, siderophores such as vibriobactin from Vibrio cholerae or mycobactin from Mycobacterium tuberculosis, as well as the mycolic acids which form the waxy cell wall of Mycobacteria. The biosyntheses of these natural products are considered attractive targets for drug design. After a large qHTS and several follow-up assays, a small molecule was identified and this in vitro ADME assay serves to better characterize its properties.
This bioassay provides profiling data on mouse liver microsome stability.
NIH Chemical Genomics Center [NCGC]
NIH Molecular Libraries Probe Centers Network [MLPCN]
Assay Submitter (PI): Michale Burkart, University of California, San Diego
1uM of compound in incubated in mouse liver microsome; the reference compound is ketanserin. Compounds are incubated at 37 degrees C for different time periods: 0, 5, 15, 30, 45, and 60 minutes. Samples are analyzed with LC-MS/MS.

- microsomal half-life: 49.5 min
Structure (SMILES): COc1ccnc(NC(=S)N2CCN(c3ncc(C(F)(F)F)cc3Cl)CC2)c1

Reference: PubChem BioAssay AID602479 (National Center for Advancing Translational Sciences (NCATS), 2012)
